Test results from patent US10426813B2, “Method to enhance endurance” (KYOWA HAKKO BIO CO., LTD., priority 2009, dated 2019).
Entries after “also recorded” stand apart in the source; their conditions may differ. Peptide text beside a SMILES is read from it.

Legend:
[1] = Time to exhaustion test on cycle ergometer at 75% VO2 max after dehydration and rehydration; format: in vivo, human
From the text: (§1) On four of the five subsequent visits to the HPL, subjects dehydrated to 2.5% of their baseline body mass. On the occasion that a dehydration protocol was not employed, subjects reported to the HPL in a euhydrated state to provide a baseline blood draw and perform the exercise protocol. This trial (T1) provided baseline performance data for how subjects performed in optimal conditions without hydration stress. All performance comparisons were made to this trial. In one trial (T2) subjects achieved their goal weight (−2.5% of baseline body weight) and rested in a recumbent position for 45 minutes before commencing the exercise session. In the subsequent three trials subjects reached their goal weight (−2.5% of baseline body mass) and then rehydrated to −1.5% of their baseline body mass by drinking either water (T3) or two different doses (T4 and T5) of the alanyl-glutamine (ALA-GLU) supplement (0.05 g·kg^−1 and 0.2 g·kg^−1, respectively). During the hydration trials (T3-T5), the exercise protocol began 45 minutes following reaching their goal weight. During this time frame, subjects were rehydrated. The order of the trials was randomly determined.
On the night before testing (5 p.m.), subjects reported to the HPL for weighing and urine specific gravity measures to ascertain that subjects were euhydrated. Subjects were then instructed to not consume any food or water until the next day when they reported back to the HPL (7 a.m.). […] On the morning of trials T2-T5, subjects reporting to the HPL were weighed and began the active dehydration protocol to achieve the desired weight loss. The active dehydration protocol required subjects to walk on a motorized treadmill at 3.4 mi·h^−1 and at a 2% incline. Subjects were fully clothed in a training suit (long cotton heavy weight fleece sweat pants and top). Nude body weight, heart rate, and rating of perceived exertion were monitored at 20-minute increments. […] At the end of the dehydration period, a urine specimen and blood samples were obtained. Dehydration was verified by measuring urine specific gravity and both urine and plasma osmolality. The time necessary to reach the goal body mass (−2.5% weight loss) was 62.5±44.2 min.
(§2) Subjects consumed the supplement or placebo (water) following the dehydration protocol as part of their rehydration to −1.5% of their baseline body mass. The L-alanyl-L-glutamine supplement (0.2 g·kg^−1 or 0.05 g·kg^−1) (Kyowa Hakko USA, New York, N.Y.) was mixed with water and was indistinguishable in appearance and taste from the placebo.
After dehydration and rehydration (except during trial T2), subjects began the exercise protocol. Subjects exercised at a workload that elicited 75% of their VO2 max on a cycle ergometer. Subjects were encouraged to give their best effort during each trial, and were verbally encouraged throughout each exercise trial. Oxygen consumption, minute ventilation, respiratory exchange ratio, and heart rate were measured continuously. Heart rate and blood pressure were recorded before and at the conclusion of exercise. Time to exhaustion was determined as the time that the subject could no longer maintain the workload and/or reach volitional exhaustion.

[2] = Plasma glutamine concentration during hydration stress and endurance exercise; format: in vivo, human
From the text: as §1, §2
A baseline (BL) blood draw occurred during T1. No other blood was drawn during that trial. The BL blood sample was drawn following a 15-min equilibration period prior to exercise. […]
Hemoglobin was analyzed in triplicate from whole blood using the cyanmethemoglobin method (Sigma Diagnostics, St. Louis, Mo.). Hematocrit was analyzed in triplicate from whole blood via microcentrifugation (IEC micro-MB centrifuge, Needham, Mass.) and microcapillary technique. Plasma volume shifts following the workout were calculated using the formula of Dill & Costill (1974). […]

Plasma glutamine concentration ([2]; T4, 0.05 g/kg, compared to T3 (water only)): No differences
AUC of plasma glutamine concentration ([2]; T5, 0.2 g·kg^−1, compared to the other experimental trials): significantly higher
Compound: C[C@H](N)C(=O)N[C@@H](CCC(N)=O)C(=O)O [alanyl-glutamine, L-alanyl-L-glutamine] (H-Ala-Gln-OH)
Δ performance: time to exhaustion (difference to T1) ([1]; T4, 0.05 g·kg^−1, compared to T2 (dehydrated, no rehydration)): significantly greater times to exhaustion
trend of inhibiting the decrease in duration of exercise endurance ([1]; T4, 0.05 g·kg^−1, compared to T3 (water only)): even more pronounced
Δ performance: time to exhaustion (difference to T1) ([1]; T5, 0.2 g·kg^−1, compared to T2 (dehydrated, no rehydration)): significantly greater times to exhaustion
trend of inhibiting the decrease in duration of exercise endurance ([1]; T5, 0.2 g·kg^−1, compared to T3 (water only)): even more pronounced
effect on endurance ([1]; overall conclusion, independent of increases in plasma glutamine concentration): endurance enhancing effect
Plasma glutamine concentration ([2]; T5, 0.2 g·kg^−1, at RHY and IP, compared to T2-T4): significantly higher; also recorded: significantly increased
